Assay results taken from publication PMC10959927, “Platinum iodido drugs show potential anti-tumor activity, affecting cancer cell metabolism and inducing ROS and senescence in gastrointestinal cancer cells” (Communications Biology, 2024).
Several values for one entry are separate records, joined by “and”; a condition that tells them apart may be missing. Identical values can stand only once.

Experiments:
Format in all cases: cell-based, human
AGS cells [1] = assay: Seahorse XF OCR, ECAR and energy map; conditions: AGS, IC50 24 h
Procedure: (§1) Oxygen Consumption Rate (OCR), Extra Cellular Acidification Rate (ECAR) and Energy map measurements. Cells were plated in XF HS Miniplates (Seahorse Bioscience) at a cellular density of 1 × 10^4 cells/well and incubated overnight. […] After an OCR baseline measurement, the minimum oxygen consumption was determined by adding 1.5 µM oligomycin (O) and the maximal respiration rate was assessed by adding 1 µM carbonyl cyanide p-trifluoro methoxyphenylhydrazone (FCCP, F). At the end of the experiment, the non-mitochondrial oxygen consumption was evaluated by adding both 0.5 µM rotenone (R) and antimycin (A). Experiments were run in a XF HS Mini analyzer (Seahorse Agilent), and raw data were normalized to total protein using a BCA protein assay kit (Cat. no. 23225, Thermo Scientific).

PANC1 cells [2] = assay: ROS detection by confocal microscopy (DHE, MitoSox); conditions: PANC1, 1 h treatment; H2O2 200 µM, CDDP 10 µM, I5 20 µM, I6 20 µM
Procedure: Tumor cells were seeded at a density of 3 × 10^5 cells in 15 µm 8-well IBIDI plates and incubated overnight. […] Subsequently, cells were stained with 10 μM of dihydroethidium (DHE, cytosolic O2^·- probe, Sigma-Aldrich) or with 5 μM of Mitosox (mitochondrial O2^·- probe, Sigma-Aldrich) for 15–30 min[79] and then visualized on a confocal microscope (Confocal LSM 710 Zeiss, Biomedical Research Institute Alberto Sols, IIBm-CSIC-UAM, Madrid, Spain). The image analysis was realized using the software program Image J.

PANC1 cells [3] = assay: ATP determination assay (bioluminescence); conditions: replicates
Procedure: (§2) ATP determination assay. […] The analysis was performed using the ATP Bioluminescense Assay Kit CLS II (Cat. no. 11699695001, Roche) according to the manufacturer’s instructions. […] Data were normalized to total protein using the BCA protein assay kit (Thermo Scientific).

MKN45 cells [4] = assay: ATP determination assay (bioluminescence); conditions: replicates
Procedure: as §2

AGS cells [5] = assay: ATP determination assay (bioluminescence); conditions: replicates
Procedure: as §2

PANC1 cells [6] = assay: Lactate production assay; conditions: replicates
Procedure: (§3) Lactate production assay. […] Proteins were removed from 50 μL of the medium by adding 100 μL of 8% Percloric Acid and 40% EtOH at 4 °C, and centrifuging at 2 × 10^4 g for 10 min at 4 °C. The supernatants were then frozen until the lactate in 15 μL of each sample, or lactate standard, was measured mixed with 150 μl of assay buffer (0.5 M glycine [pH 9.5], 0.2 M Hydrazine, 3.4 mM EDTA), 100 μl of H20, 5 μL of 1100 U/mL LDH (Roche) and 30 μL of 15 mM NAD + . NADH production was evaluated by measuring absorbance at 340 nm in a multiplate reader (Synergy HT, Biotek) and it was proportional to the lactic acid concentration in the sample after a 2 h incubation. The lactate concentration was normalized to the total amount of protein measured with the Micro BCA Protein Assay Kit (Thermo Scientific). Assays were performed in triplicate in three independent experiments.

MKN45 cells [7] = assay: Lactate production assay; conditions: replicates
Procedure: as §3

AGS cells [8] = assay: Lactate production assay; conditions: replicates
Procedure: as §3

PANC1 cells [9] = assay: Seahorse XF OCR, ECAR and energy map; set-up: Basal resp. / Maximal resp. / SRC: unit not given here; conditions: PANC1, IC50 24 h
Procedure: as §1

MKN45 cells [10] = assay: Seahorse XF OCR, ECAR and energy map; set-up: Basal resp. / Maximal resp. / SRC: unit not given here; conditions: MKN45, IC50 24 h
Procedure: as §1

SMILES: CC(C)[NH][Pt@SP3]([I])([I])[NH]C(C)C [I5, trans-[PtI2(isopropylamine)2]]
- effect on ECAR (AGS cells [1]): strong effect
- OCR (AGS cells [1]; time 21.13 min (I5) / 21.08 min (I6)): 33.7993 pmoles/min/µg protein and 17.1923 pmoles/min/µg protein and 31.197 pmoles/min/µg protein
- OCR (AGS cells [1]; time 60.15 min (I5) / 60.16 min (I6)): 22.0275 pmoles/min/µg protein and 13.2859 pmoles/min/µg protein and 22.5877 pmoles/min/µg protein
- OCR (AGS cells [1]; time 66.63 min (I5) / 66.65 min (I6)): 21.2372 pmoles/min/µg protein and 12.4063 pmoles/min/µg protein and 20.3044 pmoles/min/µg protein
- OCR (AGS cells [1]; time 73.12 min (I5) / 73.14 min (I6)): 19.5577 pmoles/min/µg protein and 11.425 pmoles/min/µg protein and 19.4877 pmoles/min/µg protein
- DHE fluorescence intensity (per cell), cytosolic O2•− (PANC1 cells [2]): 90.3731 and 85.3678 and 75.6942 and 74.4248 and 73.3485 and 72.8941
- ATP assay (PANC1 cells [3]): 7640.3 nmoles ATP/mg prot and 496.05 nmoles ATP/mg prot and 2595.09 nmoles ATP/mg prot and 2106 nmoles ATP/mg prot and 8408.46 nmoles ATP/mg prot and 9059.04 nmoles ATP/mg prot and 9127 nmoles ATP/mg prot and 10292.6 nmoles ATP/mg prot and 9600 nmoles ATP/mg prot
- ATP assay (MKN45 cells [4]): 11672 nmoles ATP/mg prot and 496.26 nmoles ATP/mg prot and 8257.16 nmoles ATP/mg prot and 8443 nmoles ATP/mg prot and 9557.85 nmoles ATP/mg prot and 7684.95 nmoles ATP/mg prot and 11572 nmoles ATP/mg prot and 11682.5 nmoles ATP/mg prot and 9034.25 nmoles ATP/mg prot
- ATP assay (AGS cells [5]): 8571 nmoles ATP/mg prot and 150.2 nmoles ATP/mg prot and 0.01 nmoles ATP/mg prot and 0.05 nmoles ATP/mg prot and 4895.31 nmoles ATP/mg prot and 5882.71 nmoles ATP/mg prot and 4424 nmoles ATP/mg prot and 7769.74 nmoles ATP/mg prot and 709.57 nmoles ATP/mg prot
- lactate assay (PANC1 cells [6]): 5.32 Lactate mM/mg prot and 7.44 Lactate mM/mg prot and 7.29 Lactate mM/mg prot and 4.009 Lactate mM/mg prot and 7.435 Lactate mM/mg prot and 6.316 Lactate mM/mg prot and 4.98 Lactate mM/mg prot and 4.88 Lactate mM/mg prot and 4.97 Lactate mM/mg prot
- lactate assay (MKN45 cells [7]): 3.26 Lactate mM/mg prot and 4 Lactate mM/mg prot and 1.31 Lactate mM/mg prot and 1.423 Lactate mM/mg prot and 0.8373 Lactate mM/mg prot and 1.863 Lactate mM/mg prot and 1.55 Lactate mM/mg prot and 1.53 Lactate mM/mg prot and 1.48 Lactate mM/mg prot
- lactate assay (AGS cells [8]): 1.16 Lactate mM/mg prot and 3.26 Lactate mM/mg prot and 1.86 Lactate mM/mg prot and 0.01 Lactate mM/mg prot and 0.05431 Lactate mM/mg prot and 0.02716 Lactate mM/mg prot and 0.02 Lactate mM/mg prot and 0.03 Lactate mM/mg prot
- Basal resp. (PANC1 cells [9]): 4.37 and 2.91 and 2.68
- effect on ECAR (PANC1 cells [9]): strong effect
- OCR (PANC1 cells [9]; time 14.5 min (I5) / 14.5 min (I6)): 10.9576 pmoles/min/µg protein and 5.698 pmoles/min/µg protein and 5.804 pmoles/min/µg protein
- OCR (PANC1 cells [9]; time 21.08 min (I5) / 21.07 min (I6)): 8.99 pmoles/min/µg protein and 4.967 pmoles/min/µg protein and 6.036 pmoles/min/µg protein
- OCR (PANC1 cells [9]; time 60.22 min (I5) / 60.14 min (I6)): 6.526 pmoles/min/µg protein and 3.324 pmoles/min/µg protein and 3.875 pmoles/min/µg protein
- Basal resp. (MKN45 cells [10]): 41.12 and 25.16 and 29.99
- Maximal resp. (MKN45 cells [10]): 70.47 and 41.2 and 48.53
- SRC (MKN45 cells [10]): 29.35 and 16.04 and 18.54
- effect on ECAR (MKN45 cells [10]): strong effect
- OCR (MKN45 cells [10]; time 1.53 min (I5) / 1.53 min (I6)): 87.0221 pmoles/min/µg protein and 65.8202 pmoles/min/µg protein and 67.2404 pmoles/min/µg protein
- OCR (MKN45 cells [10]; time 8.04 min (I5) / 8.03 min (I6)): 81.395 pmoles/min/µg protein and 60.0787 pmoles/min/µg protein and 61.987 pmoles/min/µg protein
- OCR (MKN45 cells [10]; time 14.51 min (I5) / 14.5 min (I6)): 68.3352 pmoles/min/µg protein and 45.5888 pmoles/min/µg protein and 48.6636 pmoles/min/µg protein
- OCR (MKN45 cells [10]; time 40.66 min (I5) / 40.62 min (I6)): 96.0748 pmoles/min/µg protein and 62.8442 pmoles/min/µg protein and 67.0243 pmoles/min/µg protein
- OCR (MKN45 cells [10]; time 53.68 min (I5) / 53.58 min (I6)): 97.9086 pmoles/min/µg protein and 60.6467 pmoles/min/µg protein and 66.2231 pmoles/min/µg protein
- OCR (MKN45 cells [10]; time 60.27 min (I5) / 60.14 min (I6)): 32.7644 pmoles/min/µg protein and 24.8353 pmoles/min/µg protein and 23.7602 pmoles/min/µg protein
- OCR (MKN45 cells [10]; time 66.75 min (I5) / 66.62 min (I6)): 29.7633 pmoles/min/µg protein and 21.9547 pmoles/min/µg protein and 20.2025 pmoles/min/µg protein
- OCR (MKN45 cells [10]; time 73.23 min (I5) / 73.1 min (I6)): 27.2124 pmoles/min/µg protein and 20.4304 pmoles/min/µg protein and 18.6726 pmoles/min/µg protein
